Test system: AMPK (pAMPK) in muscle cells (L6 myotube cells)
Assay: AMPK activation in muscle cells (pAMPK western blotting)
Type: cell-based
Experimental: Therefore, an experiment was conducted to evaluate whether Lactobacillus plantarum-derived vesicles (Lp EV) affect cellular aging through AMPK activation in cells. To evaluate AMPK activation according to a concentration of treated Lactobacillus plantarum-derived vesicles in vitro, muscle cells (L6 myotube cells) were treated with the Lactobacillus plantarum-derived vesicles at 0, 0.1, 1, or 10 μg/mL for 1 hour. As a control, insulin (1 μM), which promotes aging and metformin (50 mM), which inhibits aging were used. After treating the cells with the drug, the difference in the amount of pAMPK, which is a key indicator in AMPK signaling, was measured through western blotting. […] To perform BCA quantitative analysis, the 1.5 mL microtube containing 5 μL of the lysed sample supernatant was taken out at room temperature, 20 μL of sterile distilled water was added thereto, and the resulting solution was vortexed and then spun down. […] After reacting in a 37° C. incubator for 30 minutes, absorbance was measured at 562 nm using a SpectraMax M3 microplate reader (Molecular Devices, USA). For western blotting, in the process of tris-glycine SDS-polyacrylamide gel electrophoresis, a 10% gel was prepared, and 50 μg of a protein for each sample was quantified and loaded. […]

| Molecule | phosphorylation of AMPK (pAMPK) (insulin 1 μM for 1 hour (FIG. 8)) | phosphorylation of AMPK (pAMPK) (metformin 50 mM for 1 hour (FIG. 8)) |
| --- | --- | --- |
| insulin | inhibited | – |
| CN(C)C(=N)N=C(N)N [metformin] | – | increased |

— patent US20240261348A1, “LACTOBACILLUS PLANTARUM-DERIVED VESICLE AND USE THEREOF” (priority 2021, published 2024)
